Experimental data reported in PubChem BioAssay (NCI).
Several values for one entry are separate records, joined by “and”; a condition that tells them apart may be missing. Equal entries are not always repeated.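 Briefly, cells in 96-well plates were exposed to five compound concentrations for 48 h, and endpoints were estimated by linear interpolation. Abbreviation: GI50, concentration required for 50% inhibition of growth. TGI marks complete inhibition of growth.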

Key:
Assay in all cases: NCI tumour cell line growth inhibition, 48 h
[1] = tested on: DLD-1 colon
[2] = tested on: HOP-18 NSCLC
[3] = tested on: LXFL 529 NSCLC
[4] = tested on: M19-MEL melanoma
[5] = tested on: RXF-631 renal
[6] = tested on: PC-3 prostate
[7] = tested on: MDA-N
[8] = tested on: XF 498 CNS
[9] = tested on: P388 leukemia
[10] = tested on: P388/ADR leukemia
[11] = tested on: SN12K1 renal

SMILES | TGI [1] [µM] | TGI [2] [µM] | TGI [3] [µM] | TGI [4] [µM] | GI50 [6] | TGI [6] | also measured
O=S1Nc2c(Cl)cc(Cl)c3c(Cl)cc(Cl)c(c23)N1 | 74.8 | > 100 | > 100 | > 100 |  |  | TGI [5]: > 100 µM
COc1ccccc1CNCCCN1C(=O)c2ccc3c4c(ccc(c24)C1=O)C(=O)N(CCCCNCCCN)C3=O |  |  |  |  | 2.29 µM | 9.82 µM | 
NC(=O)c1cccc(Nc2nccc(Nc3cccc4[nH]ncc34)n2)c1 |  |  |  |  | 8.73 µM | > 25 µM | 
Cc1cccc(C)c1NC(=O)Nc1ccc(S(N)(=O)=O)cc1 |  |  |  |  |  | > 100 µM | TGI [7]: > 100 µM
COc1ccc(-c2c3c(n(C4OC(COC(C)=O)C(OC(C)=O)C(OC(C)=O)C4OC(C)=O)c(=S)c2C#N)CC(C)(C)CC3=O)cc1 (configuration not stated) |  |  |  |  |  | > 100 µM | TGI [7]: > 100 µM
SCCSCCCSCCS |  |  |  |  |  | > 100 µM | TGI [7]: > 100 µM
COC(C(=O)NCCCCNC(=O)C(OC)c1ccccc1)c1ccccc1 (configuration not stated) | > 100 | > 100 | > 100 | > 100 |  |  | TGI [5]: > 100 µM; TGI [8]: > 100 µM
COc1nc(N)nc2c1ncn2C1OC(CO)C(O)C1O (configuration not stated) |  |  |  |  | > 5000 µM | > 5000 µM | 
CCCN(CCCC(NC(C)=O)C(=O)NCc1ccccc1)C(=O)NCCCl (configuration not stated) | > 100 | > 100 | > 100 | > 100 |  |  | TGI [5]: > 100 µM; TGI [8]: > 100 µM
COc1cc(CNc2ccccc2C(=O)N2CCN(C(=O)c3cc(-c4cc(OC)c(OC)c(OC)c4)n4nc(-c5ccccc5)cc4n3)CC2)cc(OC)c1OC |  |  |  |  | 2.35 µM | > 100 µM | 
CNC(=O)Cc1nc(-c2cccc(NS(=O)(=O)c3c(F)cccc3F)c2F)c(-c2ccnc(Nc3ccccc3)n2)s1 |  |  |  |  | 20.9 µM | > 50 µM | 
CC(C)(C)CC(C)(C)NCc1cc(C(C)(C)C)cc(CNC(C)(C)CC(C)(C)C)c1O |  |  |  |  | 2.86 µM | 12.2 µM | 
O=c1[nH]c2cc(Cl)ccc2nc1/C(=N\O)C(O)c1ccc([N+](=O)[O-])cc1 (configuration not stated) | > 100 |  | > 100 | > 100 |  |  | TGI [8]: > 100 µM
COC(=O)C1[C@H](c2cc(OC)c(OC)c(OC)c2)OC(=O)C1(C(=O)OC)C(=O)c1ccc2c(c1)OCO2 (some centres not stated) | > 100 |  | > 100 | > 100 |  |  | TGI [8]: > 100 µM
CN1C(=O)N[C@H]2[C@@H]3NC(=O)c4ccc(Br)n4[C@@H]3C[C@]21O |  |  |  |  | 0.475 µM | 5.42 µM | 
OCC(O)c1nc2ccc3[nH]ncc3c2c2c1CCCC2 (configuration not stated) |  |  |  |  | 1.43 µM | > 50 µM | 
O=[N+]([O-])C1Cc2ccccc2OC1c1ccccc1 (configuration not stated) | > 100 | > 100 | > 100 | > 100 |  |  | TGI [5]: > 100 µM
Cc1cc(C)c(NC(=S)NC(=O)c2ccccc2)cc1C |  |  |  |  |  | > 100 µM | TGI [7]: > 100 µM
CN(Cc1cc(Cl)cc(Cl)c1)CC(C(=O)c1ccccc1)c1ccccc1 (configuration not stated) |  |  |  |  |  | 29.3 µM | 

SMILES | TGI [1] [µM] | TGI [2] [µM] | TGI [3] [µM] | TGI [4] [µM] | GI50 [6] | TGI [6] | also measured
CC(C)(C)C(=O)OCC1CCC(n2cnc3c(=O)[nH]c(N)nc32)O1 (configuration not stated) |  | > 100 |  | > 100 |  |  | TGI [8]: > 100 µM
O=C1OC(O)C(Oc2c(Cl)cccc2Cl)=C1Cl (configuration not stated) | 32.1 | 42.4 | 33.6 |  |  |  | 
C[N+](C)(C)CC(=O)N/N=C(\C(=O)NC1=C(Cl)C(=O)c2ccccc2C1=O)C(C#N)c1csc(-c2ccc([N+](=O)[O-])cc2)n1 (configuration not stated) | > 100 | > 100 | > 100 | > 100 |  |  | TGI [5]: > 100 µM; TGI [8]: > 100 µM
N#C/C(=C1\SC(N=Nc2ccccc2)C(=O)N1c1ccccc1)c1nc2ccccc2[nH]1 (configuration not stated) | > 100 |  | > 100 | > 100 |  |  | TGI [8]: 85 µM
Cn1c(=O)c2nc(-c3ccc(Cl)cc3)oc2n(C)c1=O | > 100 | > 100 | > 100 | > 100 |  |  | TGI [8]: > 100 µM
Nc1ccn(C2OC(COC(=O)C34CC5CC(CC(C5)C3)C4)C(O)C2O)c(=O)n1 (configuration not stated) | > 100 | > 100 |  | > 100 |  | > 100 µM | TGI [7]: > 100 µM; TGI [9]: > 100 µM; TGI [10]: > 100 µM; TGI [11]: > 100 µM
CC(=O)On1c(-c2ccccc2-c2nc3ccccc3n2OC(C)=O)nc2ccccc21 |  |  |  |  |  | 58.6 µM | TGI [7]: > 100 µM
COc1ccc(OC)c2c1[nH]c(=O)c1c3ncccc3cn21 |  |  |  |  | 4.73 µM | > 100 µM | 
O=C1/C(=C\c2ccccn2)c2ccccc2N1c1c(Cl)cccc1Cl |  |  |  |  | 2.79 µM | > 26.3 µM | 
COc1cc(Nc2nc3ccccc3cc2C(=O)Nc2ccc(F)c(F)c2)cc(OC)c1OC |  |  |  |  | 2.21 µM | 7.9 µM | 
COC(=O)C(Cc1nc2ccccc2[nH]c1=O)C(=O)C(=O)Nc1ccc([N+](=O)[O-])cc1[N+](=O)[O-] (configuration not stated) | 42 | 32.1 | 25.5 | 33.9 |  |  | TGI [5]: 73.1 µM; TGI [8]: 34.6 µM
CC(=O)[CH-]C(=O)c1ccccc1.CC(=O)[CH-]C(=O)c1ccccc1.CCOCC[O-].CCOCC[O-].[Ti+4] |  |  | 29.1 | 43.4 |  |  | GI50 [3]: 12.2 µM; GI50 [4]: 18.9 µM
O=c1c(Cl)c(Cl)c(=O)c2sc3cc(Cl)ccc3[nH]c1=2 |  |  |  |  |  | > 100 µM | 
Cc1cc(N2CCSCC2)nc(NC2CCCC(Nc3ccnc4cc(Cl)ccc34)C2)n1 (configuration not stated) |  |  |  |  | 2.1 µM | 4.52 µM | 
O=Cc1cccc2c1Oc1c(cccc1C(=O)O)S2 |  |  |  |  |  | > 100 µM | TGI [7]: > 100 µM
CCc1cccc(CC)c1NC(=O)C1=C(C)NC(C)=C(C(=O)Nc2c(CC)cccc2CC)C1c1ccc([N+](=O)[O-])cc1 | > 100 |  | 33.1 | 69.2 |  |  | TGI [8]: 39.5 µM
Cc1sc2c(c1C)C(c1ccc(Cl)cc1)=N[C@@H](CC(=O)OC(C)(C)C)c1nnc(C)n1-2 |  |  |  |  | 1.58 µM and 1.08 µM | 24.6 µM and 16.7 µM | 
O=c1c2cccc3cccc(c4n1CCN=4)c32 | > 100 | > 100 | > 100 | > 100 |  |  | TGI [8]: > 100 µM
CN(C)C=C1C(Cl)=C(C=O)CC(C=O)=C1Cl | 20.9 | 26.8 | 4.45 | 29.1 |  |  | 
